Source: US7153869B2, “Substituted amino acids as erythropoietin mimetics” (priority 1998, dated 2006)
Read-outs that look alike come from different tables or passages of the source.

Target: T1, EBP-Ig (N-terminal 225 amino acids of the human EPO receptor joined to an Ig heavy chain) (Homo sapiens, UniProt P19235)
T1 construct: Ig heavy chain (fusion partner); made in house; host or cells: NSO cells (secreted into conditioned media)
T1 sequence (P19235 25-250 limits assumed): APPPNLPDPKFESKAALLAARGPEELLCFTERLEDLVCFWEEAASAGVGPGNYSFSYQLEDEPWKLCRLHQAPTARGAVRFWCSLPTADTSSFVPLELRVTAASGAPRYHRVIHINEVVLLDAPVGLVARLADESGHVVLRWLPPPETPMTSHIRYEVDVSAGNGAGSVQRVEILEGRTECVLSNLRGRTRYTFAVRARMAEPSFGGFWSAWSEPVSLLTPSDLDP
Experiment: Inhibition of [125I]EPO binding to immobilized EBP-Ig (EPO binding protein-Ig), scintillation Flash plate competition assay
Conditions: for IC30 μM (Inhibition of EPO binding to EBP-Ig): 0–500 μM test compound; for % inh @ 50 μM (Inhibition of EPO binding to EBP-Ig): 50 μM test compound, average % inhibition

[1] = read-out: % inh @ 50 μM (Inhibition of EPO binding to EBP-Ig)
[2] = read-out: EPO/EBP-Ig % inh @ 50 μM, 50 μM compound, Table 16A
[3] = read-out: IC50, μM (Inhibition of EPO binding to EBP-Ig), 0.5 nM [125I]EPO, concentration reducing corrected total binding to 50%

## COC(=O)C(CCCCNC(=O)OC(C)(C)C)N(Cc1ccc(OCc2ccccc2)cc1)Cc1ccc(OCc2ccccc2)cc1 (centres unmarked) [cpd 111, N,N-bis(4-Benzyloxybenzyl)Lys(Boc)-OMe]
Table 7, 50 μM
  EPO/EBP-Ig % inh @ 50 μM: 5%

## COc1ccc(CCNC(=O)C(CCCCNC(=O)OC(C)(C)C)N(C/C=C/c2cccc(Oc3ccccc3)c2)C/C=C/c2cccc(Oc3ccccc3)c2)cc1 (centres unmarked) [compound 225]
50 μM compound, Table 10
  EPO/EBP-Ig % inh @ 50 μM: 10%

## O=C(O)CCC(C(=O)O)N(C/C=C/c1cccc(Oc2cccc(C(F)(F)F)c2)c1)C/C=C/c1cccc(Oc2cccc(C(F)(F)F)c2)c1 (centres unmarked) [compound 105]
  IC50: 35 µM
0.5 nM [125I]EPO
  IC30 μM (Inhibition of EPO binding to EBP-Ig): 25 µM
[1]
  inhibition at 50 µM: 70%
read-out: EPO/EBP-Ig % inh @ 50 μM, Table 6, 50 μM
  inhibition at 50 µM: 70%

## COC(=O)[C@H](COC(C)(C)C)NC/C=C/c1cccc(Oc2cccc(C(F)(F)F)c2)c1 [compound 355]
50 μM compound, Table 20A
  EPO/EBP-Ig % inh @ 50 μM: 22%

## O=C(O)[C@H](CO)N(C/C=C/c1cccc(Oc2ccccc2)c1)C/C=C/c1cccc(Oc2ccccc2)c1 [cpd 300, N,N-Bis(3-phenoxycinnamyl)Ser-OH]
  IC50: 145 µM
0.5 nM [125I]EPO
  IC30 μM (Inhibition of EPO binding to EBP-Ig): 35 µM
[1]
  inhibition at 50 µM: 57%
[2]
  inhibition at 50 µM: 57%

## COC(=O)[C@H](Cc1ccccc1)NC/C=C/c1ccccc1 [compound 360]
50 μM compound
  EPO/EBP-Ig % inh @ 50 μM: 18%

## COC(=O)C(CCCCNC(=O)OC(C)(C)C)N(Cc1cccc(OCc2ccccc2)c1)Cc1cccc(OCc2ccccc2)c1 (centres unmarked) [compound 109]
Table 7, 50 μM
  EPO/EBP-Ig % inh @ 50 μM: 7%

## COC(=O)C(CCC(=O)OC(C)(C)C)N(C/C=C/c1cccc(Oc2ccc(Cl)c(Cl)c2)c1)C/C=C/c1cccc(Oc2ccc(Cl)c(Cl)c2)c1 (centres unmarked) [compound 99]
Table 6, 50 μM
  EPO/EBP-Ig % inh @ 50 μM: 13%

## CC(=O)O.COC(=O)CC(NCC=Cc1cccc(C(=O)OC)c1)C(=O)OC (centres unmarked) [compound 366]
0.5 nM [125I]EPO
  IC30 μM (Inhibition of EPO binding to EBP-Ig): 65 µM
  % inh @ 50 μM (Inhibition of EPO binding to EBP-Ig): 38%
50 μM compound
  EPO/EBP-Ig % inh @ 50 μM: 38%

## CC(C)(CC(=O)O)CC(=O)NCCCCC(C(=O)NCCCOCCCCOCCCNC(=O)C(CCCCNC(=O)CC(C)(C)CC(=O)O)N(Cc1ccc(OCc2ccccc2)cc1)Cc1ccc(OCc2ccccc2)cc1)N(Cc1ccc(OCc2ccccc2)cc1)Cc1ccc(OCc2ccccc2)cc1 (centres unmarked) [compound 267]
0.5 nM [125I]EPO
  IC30 μM (Inhibition of EPO binding to EBP-Ig): 2 µM
  % inh @ 50 μM (Inhibition of EPO binding to EBP-Ig): 83%
50 μM compound, Table 13
  EPO/EBP-Ig % inh @ 50 μM: 83%
[3]
  IC50: 6 µM

## O=C(O)CCC(=O)NCCCCC(C(=O)NCCCOCCCCOCCCNC(=O)C(CCCCNC(=O)CCC(=O)O)N(Cc1ccc(OCc2ccccc2)cc1)Cc1ccc(OCc2ccccc2)cc1)N(Cc1ccc(OCc2ccccc2)cc1)Cc1ccc(OCc2ccccc2)cc1 (centres unmarked) [compound 265]
0.5 nM [125I]EPO
  IC30 μM (Inhibition of EPO binding to EBP-Ig): 1 µM
  % inh @ 50 μM (Inhibition of EPO binding to EBP-Ig): 65%
50 μM compound, Table 13
  EPO/EBP-Ig % inh @ 50 μM: 65%
[3]
  IC50: 6 µM

## O=C(O)CCCC(=O)NCCCCC(C(=O)NCCOCCOCCNC(=O)C(CCCCNC(=O)CCCC(=O)O)N(Cc1ccc(OCc2ccccc2)cc1)Cc1ccc(OCc2ccccc2)cc1)N(Cc1ccc(OCc2ccccc2)cc1)Cc1ccc(OCc2ccccc2)cc1 (centres unmarked) [compound 263]
0.5 nM [125I]EPO
  IC30 μM (Inhibition of EPO binding to EBP-Ig): 1 µM
  % inh @ 50 μM (Inhibition of EPO binding to EBP-Ig): 88%
50 μM compound, Table 13
  EPO/EBP-Ig % inh @ 50 μM: 88%
[3]
  IC50: 1.5 µM

## CC(C)(C)OC(=O)CCC(C(=O)O)N(C/C=C/c1ccc2ccccc2c1)C/C=C/c1ccc2ccccc2c1 (centres unmarked) [compound 97]
Table 6, 50 μM
  EPO/EBP-Ig % inh @ 50 μM: 14%

## CCCCNC(=O)C(CCCCNC(=O)c1ccccc1)N(C/C=C/c1ccccc1)C/C=C/c1ccccc1 (centres unmarked) [compound 208]
50 μM compound, Table 10
  EPO/EBP-Ig % inh @ 50 μM: 22%

## N=C(N)NCCCC(C(=O)O)N(CC=Cc1cccs1)CC=Cc1cccs1 (centres unmarked) [compound 49]
Table 3, 50 μM
  EPO/EBP-Ig % inh @ 50 μM: 1%

## O=C(O)C(CO)N(CC=Cc1ccc(-c2ccccc2)cc1)CC=Cc1ccc(-c2ccccc2)cc1 (centres unmarked) [compound 305]
0.5 nM [125I]EPO
  IC30 μM (Inhibition of EPO binding to EBP-Ig): 35 µM
[1]
  inhibition at 50 µM: 48%
[2]
  inhibition at 50 µM: 48%
[3]
  IC50: 225 µM

## COC(=O)C(CCCCN)N(Cc1ccc(OCc2ccccc2)cc1)Cc1cccc(NC(=O)c2ccncc2)c1 (centres unmarked) [compound 120]
0.5 nM [125I]EPO
  % inh @ 50 μM (Inhibition of EPO binding to EBP-Ig): 35%
Table 7, 50 μM
  EPO/EBP-Ig % inh @ 50 μM: 35%

## CC(=O)O.COC(=O)c1cccc(C=CCNC(C(=O)OC)C(C)C)c1 (centres unmarked) [compound 371]
50 μM compound
  EPO/EBP-Ig % inh @ 50 μM: 16%

## Cc1ccc(Oc2cccc(CN(Cc3cccc(NCc4ccccc4)c3)C(CC(=O)O)C(=O)O)c2)cc1 (centres unmarked) [compound 75]
Table 4, 50 μM
  EPO/EBP-Ig % inh @ 50 μM: −2%

## COC(=O)C(CCCCN)N(C/C=C/c1cccc(Oc2ccc(C(C)(C)C)cc2)c1)Cc1cccc(OCc2ccccc2)c1 (centres unmarked) [compound 139]
  IC50: 10 µM
0.5 nM [125I]EPO
  IC30 μM (Inhibition of EPO binding to EBP-Ig): 2 µM
[1]
  inhibition at 50 µM: 46%

## COC(=O)[C@H](CCC(=O)OC(C)(C)C)NC/C=C/c1cccc(Oc2ccc(Cl)c(Cl)c2)c1 [compound 336]
50 μM compound, Table 19A
  EPO/EBP-Ig % inh @ 50 μM: 32%
